Literature values in patent US20110105450A1, “OPHTHALMIC FORMULATIONS OF FLUTICASONE AND METHODS OF USE” (Aciex Therapeutics, Inc., priority 2009, published 2011).
≈ marks a conversion by molar mass, not a printed value.

For `CCC(=O)O[C@]1(C(=O)SCF)[C@H](C)C[C@H]2[C@@H]3C[C@H](F)C4=CC(=O)C=C[C@]4(C)[C@@]3(F)[C@@H](O)C[C@@]21C` [Fluticasone propionate, S-fluoromethyl-6-α-9-difluoro-11-β-hydroxy-16-α-methyl-3-oxoandrosta-1,4-diene-17-β-carbothioate, 17-propionate], the “solubility in 95% ethanol” value (95% ethanol) is given as “slightly soluble”, the “solubility in dimethyl sulfoxide” value (dimethyl sulfoxide) is given as “freely soluble” and the solubility in dimethyl-formamide (dimethyl-formamide) is given as “freely soluble”. For the same compound, the solubility in methanol (methanol) was “slightly soluble” and the solubility in water (water) was 0.14 µg/mL (≈ 0.28 µM).
